Source: ChEMBL document CHEMBL1201862, “PubChem BioAssay data set” (2004)
Several values for one entry are separate records, joined by “and”; a condition that tells them apart may be missing. Equal entries are not always repeated.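 Step 1: Grow cells in 96-well plates. Step 2: Expose to compound for 48 hours at 5 concentrations. Step 3: Interpolate endpoints linearly; if unreached, use highest concentration. At the GI50, growth is halved.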 Activity calls are given as the source filed them. No stated cut-off is given here; in the data, active = GI50 up to about 1.1 µM and inactive = higher.

What was measured:
Test in all cases: inhibition of tumour cell growth, NCI panel, 48 h
[1] = test system: A498
[2] = test system: COLO 205
[3] = test system: EKVX
[4] = test system: HCT-116
[5] = test system: HCT-15
[6] = test system: HL-60
[7] = test system: IGROV-1
[8] = test system: KM12
[9] = test system: MOLT-4
[10] = test system: Malme-3M
[11] = test system: NCI-H23
[12] = test system: NCI-H460
[13] = test system: OVCAR-4
[14] = test system: OVCAR-8
[15] = test system: PC-3
[16] = test system: SK-MEL-2
[17] = test system: SNB-75
[18] = test system: SW-620
[19] = test system: UACC-62
[20] = test system: SR

SMILES | GI50 [1] | GI50 [2] | GI50 [3] | GI50 [4] | GI50 [5] [µM] | GI50 [6] | GI50 [7] | GI50 [8] | GI50 [9] | GI50 [10] | GI50 [11] | GI50 [12] | GI50 [13] | GI50 [14] | GI50 [15] | GI50 [16] | GI50 [17] | GI50 [18] | GI50 [19] | GI50 [20]
Fc1ccc(C(OCCN2CC3CCC(C2)N3CCCc2ccccc2)c2ccc(F)cc2)cc1 | 4.27 µM (inactive) | 1.41 µM (inactive) | 4.06 µM (inactive) | 2.93 µM (inactive) | 3.42 | 3.08 µM (inactive) | 8.71 µM (inactive) | 3.18 µM (inactive) | 2.79 µM (inactive) | 3.32 µM (inactive) | 4.25 µM (inactive) | 3.01 µM (inactive) | 3.94 µM (inactive) | 2.3 µM (inactive) | 2.72 µM (inactive) | 2.55 µM (inactive) | 3.37 µM (inactive) | 3.54 µM (inactive) | 9.51 µM (inactive) | –
Cc1nc2ccc(NC3OC(CO)C(O)C(O)C3O)cc2c(=O)n1-c1ccccc1 (stereo unspecified) | > 100 µM (inactive) | > 100 µM (inactive) | > 100 µM (inactive) | > 100 µM (inactive) | > 100 | > 100 µM (inactive) | > 100 µM (inactive) | 92.7 µM (inactive) | > 100 µM (inactive) and > 99.3 µM (inactive) | > 100 µM (inactive) | > 100 µM (inactive) | > 100 µM (inactive) | > 100 µM (inactive) | > 100 µM (inactive) | > 100 µM (inactive) | > 100 µM (inactive) | > 100 µM (inactive) | > 100 µM (inactive) | > 100 µM (inactive) | –
O=c1[nH]nc(-c2ccccc2)n1/N=C/c1ccccc1O | 34.1 µM (inactive) | > 100 µM (inactive) | 67.9 µM (inactive) | 33.4 µM (inactive) | > 100 | – | 53 µM (inactive) | 47 µM (inactive) | > 100 µM (inactive) | 88.1 µM (inactive) | > 100 µM (inactive) | > 100 µM (inactive) | 28.6 µM (inactive) | 47.6 µM (inactive) | 89.9 µM (inactive) | > 100 µM (inactive) | – | > 100 µM (inactive) | 81.1 µM (inactive) | > 100 µM (inactive)
COc1cccc(CC(C)NCC(O)c2ccc(O)c(O)c2)c1 (stereo unspecified) | > 100 µM (inactive) | 19 µM (inactive) | 57.3 µM (inactive) | 28.8 µM (inactive) | 44.6 | – | 92 µM (inactive) | 55.5 µM (inactive) | 14 µM (inactive) | 43.5 µM (inactive) | 33.7 µM (inactive) | 51.6 µM (inactive) | 18.5 µM (inactive) | 18.7 µM (inactive) | 46.1 µM (inactive) | > 100 µM (inactive) | 19 µM (inactive) | 33 µM (inactive) | 37.5 µM (inactive) | 17.4 µM (inactive)
CN(Cc1cccc2ccsc12)/N=C\c1ccc(Cl)cc1 | 93.3 µM (inactive) | 74.8 µM (inactive) | 50.4 µM (inactive) | 28.6 µM (inactive) | 34.7 | – | > 100 µM (inactive) | 58.5 µM (inactive) | 25.5 µM (inactive) | > 100 µM (inactive) | 28.4 µM (inactive) | > 100 µM (inactive) | 46.1 µM (inactive) | > 100 µM (inactive) | > 100 µM (inactive) | – | 57.1 µM (inactive) | 80.2 µM (inactive) | > 100 µM (inactive) | 18.4 µM (inactive)
COc1cc2c(cc1O)NC(=O)[C@@H]1CCCN1C2=O | > 100 µM (inactive) | > 100 µM (inactive) | > 100 µM (inactive) | > 100 µM (inactive) | > 100 | – | > 100 µM (inactive) | > 100 µM (inactive) | > 100 µM (inactive) | > 100 µM (inactive) | > 100 µM (inactive) | > 100 µM (inactive) | > 100 µM (inactive) | > 100 µM (inactive) | > 100 µM (inactive) | > 100 µM (inactive) | > 100 µM (inactive) | > 100 µM (inactive) | > 100 µM (inactive) | > 100 µM (inactive)
CN1N(c2ccccc2)C(=O)C2=NC=C(C#N)C(=N)C21C (stereo unspecified) | > 100 µM (inactive) | > 100 µM (inactive) | > 100 µM (inactive) | > 100 µM (inactive) | > 100 | – | > 100 µM (inactive) | > 100 µM (inactive) | > 100 µM (inactive) | > 100 µM (inactive) | > 100 µM (inactive) | > 100 µM (inactive) | > 100 µM (inactive) | > 100 µM (inactive) | > 100 µM (inactive) | > 100 µM (inactive) | > 100 µM (inactive) | > 100 µM (inactive) | > 100 µM (inactive) | 19.8 µM (inactive)
